Assay results from patent US20080095810A1, “Nanoparticles Of Chitosan And Polyethyleneglycol As A System For The Administration Of Biologically-Active Molecules” (Advanced In Vitro Cell Technologies, S.L., priority 2005, published 2008).

What was measured:
[1] = test system: streptozotocin diabetic male Wistar rats; assay: blood sugar after intranasal administration of insulin formulations in diabetic rats; assay type: in vivo; conditions: 10 U/kg insulin intranasal, compared with acetate buffer or with chitosan-PEG nanoparticles
Experimental: To encapsulate insulin in the chitosan nanoparticles, 2.4 mg of insulin were previously dissolved in an NaOH solution to which 1.2 mL of TPP were later added. This mixture was later added to 3 mL of chitosan. After 5 min with magnetic stirring, the preparation was centrifuged at 10,000 g for 40 min. The supernatant was removed and the precipitate was dissolved in a buffer. For its part, the same process was carried out to prepare the chitosan-PEG nanoparticles, but adding 10 mg/mL of PEG 400 to 2 mg/mL of chitosan.
The rats were considered diabetic when the blood sugar concentration was greater than 400 mg/dl after three weeks of the treatment with streptozotocin.
Fasting rats were used to carry out this experiment. They were divided into different groups depending on the formulation which was to be administered to them. […]
To determine the blood glucose levels, blood samples were collected from the tail vein before the nasal administration and every quarter of an hour until 90 minutes were completed. […] The blood glucose level was immediately determined using a glucose analyzer (Prestige from Chronolyss). […]

diabetic rats = assay: glycemic response to an oral glucose administration after intranasal insulin formulations; assay type: in vivo; conditions: 10 U/kg insulin intranasal, compared with acetate buffer
Experimental: Diabetic rats which had fasted overnight were used to carry out this experiment. Each of the preparations described in Example 7 was nasally administered to them. After one hour, each group of rats received an oral glucose administration of 2 g per each kg of body mass. The blood sugar was measured in blood from samples collected from the tail vein before the glucose administration and after 10, 20, 30, 60, 90 and 120 minutes.

Substance: insulin
- effect on blood sugar (in words) [1]: did not significantly change the previous result
- effect on glycemic response to oral glucose (in words) (diabetic rats): did not significantly change this result
